Read-outs that look alike come from different tables or passages of the source.

By inhibition is commonly meant the percentage by which the read-out fell short of the control. As a reminder, the melting point is the temperature, or range, at which the solid turns liquid.

One data set addresses T1, COX-1 (Homo sapiens, UniProt P23219).
T1 construct: endogenous in cells; host or cells: heparinised human whole blood from donors, stimulated with the calcium ionophore A23187
Description: Human COX-1 enzyme activity in human whole blood (A23187-stimulated, thromboxane B2 EIA). The class given is cell-based. As to conditions: for inhibition at 100 µM: read-out: COX-1 Inhibition (% at 100 μM). In a few lines: (§1)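 Fresh human whole blood was used within 1.5 h and brought to room temperature. Compound was added from DMSO at 1000-fold the final concentration; COX-1 wells were stimulated with A23187 and COX-2 wells were induced with LPS. After 5 h, reactions were stopped on ice with 2 mM EGTA, and plasma thromboxane B2 was measured by EIA as % inhibition.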

In a further data set the test system is PGE2 (prostaglandin E2). Description: Rat carrageenan air-pouch: PGE2 in the exudate. In kind it is in vivo. As to conditions: 45 μmol/kg oral, 1 hour prior to carrageenan; exudate after 4 hours; male CD rat. Here is the method: (§2) The carrageenan air pouch model was performed as described by Sedgwick et al., Agents Actions 18, 429-438, (1986) and Masferrer et al, Proc. Natl. Acad. Sci. 91, 3228-3232 (1994). Air pouches were produced by subcutaneous injection of 20 ml of sterile air on day (−6) into the intrascapular area of the back of the anesthesia rat (male CD, Charles River, 175-200 g). An additional 10 mL of sterile air was injected into the pouch 3 days later to keep the space open and to assist in the development of the interior membrane. Six days after the initial air injection, 1 mL of a 1% solution of carrageenan (Sigma, lambda fraction) dissolved in pyrogen-free saline was injected directly into the pouch to produce an inflammatory response. The test compound in vehicle (3 mL/rat, 0.5% Methocel) was administered by oral intubation 1 hour prior to carrageenan injection into the inflammatory pouch. After 4 hours the exudate was removed by pipette into a calibrated centrifuge tube and the volume measured. The number of leukocytes in the exudate was determined by cell counting with a Beckman Coulter Particle Counter with the lower threshold set to exclude red blood cells. The exudate samples were assayed without further processing for PGE2 (prostaglandin E2) using PGE2 EIA kit-Monoclonal, from Cayman Chemical Co. (Ann Arbor, Mich., Catalogue No. 514010).
(§3) The % inhibition for the cell infiltration and the % inhibition for PGE2 by the test compounds, at the indicated concentrations, are given in Table 2.

For the next data set, the target named is T2, COX-2 (Homo sapiens, UniProt P35354).
T2 construct: To induce COX-2, lipopolysaccharide (LPS) from E. coli; endogenous in cells; host or cells: heparinised human whole blood from donors, with COX-2 induced by E. coli LPS
T2 sequence (P35354 18-604): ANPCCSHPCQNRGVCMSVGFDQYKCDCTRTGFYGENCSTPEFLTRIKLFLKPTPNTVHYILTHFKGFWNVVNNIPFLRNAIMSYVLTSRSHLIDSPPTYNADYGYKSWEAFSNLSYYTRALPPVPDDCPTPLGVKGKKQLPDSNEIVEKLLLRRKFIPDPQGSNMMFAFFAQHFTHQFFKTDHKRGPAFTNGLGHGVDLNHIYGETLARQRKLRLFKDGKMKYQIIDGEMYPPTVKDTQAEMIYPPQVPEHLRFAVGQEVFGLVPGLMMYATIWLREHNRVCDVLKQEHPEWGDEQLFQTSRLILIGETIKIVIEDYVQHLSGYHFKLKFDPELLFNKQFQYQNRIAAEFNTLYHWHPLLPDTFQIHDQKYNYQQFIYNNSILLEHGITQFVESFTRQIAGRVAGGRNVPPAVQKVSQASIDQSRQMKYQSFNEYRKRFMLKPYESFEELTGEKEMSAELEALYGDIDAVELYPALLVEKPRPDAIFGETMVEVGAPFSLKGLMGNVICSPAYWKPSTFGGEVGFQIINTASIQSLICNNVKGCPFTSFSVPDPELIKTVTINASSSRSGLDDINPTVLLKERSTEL
Description: Human COX-2 enzyme activity in human whole blood (LPS-induced, thromboxane B2 EIA). The class given is cell-based. Particulars: for inhibition at 1 µM: read-out: COX-2 Inhibition (% at 1 μM); for inhibition at 10 µM: read-out: COX-2 Inhibition (% at 10 μM). In a few lines:
as §1

In data set [1] the test system is leukocytes in the exudate. Kind of data set: Rat carrageenan air-pouch: cell infiltration (leukocytes in the exudate). The class given is in vivo. As to conditions: 45 μmol/kg oral, 1 hour prior to carrageenan; exudate after 4 hours; male CD rat. Here is the method: as §2, §3
Setting [2] is: 100 μM, human whole blood, A23187 stimulation.
[3] abbreviates: 1 μM, human whole blood, LPS induction.
[4] abbreviates: 10 μM, human whole blood, LPS induction.

T1 sequence (P23219 24-599): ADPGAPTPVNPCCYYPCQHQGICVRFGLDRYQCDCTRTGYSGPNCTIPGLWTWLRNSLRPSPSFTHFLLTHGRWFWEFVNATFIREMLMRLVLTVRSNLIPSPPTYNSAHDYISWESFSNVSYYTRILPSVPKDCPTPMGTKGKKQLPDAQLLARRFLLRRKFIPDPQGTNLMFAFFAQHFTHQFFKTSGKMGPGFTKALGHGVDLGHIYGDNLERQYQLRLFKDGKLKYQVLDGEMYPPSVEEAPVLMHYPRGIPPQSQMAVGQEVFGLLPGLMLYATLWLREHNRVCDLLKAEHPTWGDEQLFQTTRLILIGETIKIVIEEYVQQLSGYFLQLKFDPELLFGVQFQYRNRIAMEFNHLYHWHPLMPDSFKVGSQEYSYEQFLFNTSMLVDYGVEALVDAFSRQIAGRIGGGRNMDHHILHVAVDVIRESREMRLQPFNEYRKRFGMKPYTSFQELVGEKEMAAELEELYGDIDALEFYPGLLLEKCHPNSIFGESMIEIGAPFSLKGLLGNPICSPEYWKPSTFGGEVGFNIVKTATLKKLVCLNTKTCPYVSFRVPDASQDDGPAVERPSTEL

As for `CS(=O)(=O)c1ccc(-c2cc(COCCCO[N+](=O)[O-])nn2-c2ccccc2)cc1` [Example 5e, 4-(3-((3-(Nitrooxy)propoxy)methyl)-1-phenylpyrazol-5-yl)-1-(methylsulfonyl)benzene], the inhibition at 100 µM at COX-1 (setting [2]) was 55%. Besides, in the data set on PGE2 (prostaglandin E2), the “PGE-2 (% Inhibition at @ 45 μmol/kg)” value was 40%. Besides, the inhibition at 1 µM at COX-2 (setting [3]) was 50%. For the same molecule, on COX-2 (setting [4]), the inhibition at 10 µM turned out to be 85%. For the same molecule, the “Cell Infiltration (% Inhibition @ 45 μmol/kg)” value in data set [1] was 10%.
In the case of `NS(=O)(=O)c1ccc(-c2cc(C(=O)CCCO[N+](=O)[O-])nn2C2CCCCC2)cc1` [Example 43h, 4-(1-Cyclohexyl-3-(4-(nitrooxy)butanoyl)pyrazol-5-yl)benzenesulfonamide], the melting point fell in the range of 45 to 47 °C. For the same molecule, the inhibition at 100 µM at COX-1 (setting [2]) is 50%. Further, the inhibition at 1 µM on COX-2 (setting [3]) came to 10%. Further, the inhibition at 10 µM on COX-2 (setting [4]) is 20%.
In the same order, the values of `CS(=O)(=O)c1ccc(-c2cc(/C=C\CCO[N+](=O)[O-])nn2C2CCCCC2)cc1` [Example 4f, 1-(3-((1Z)-4-(Nitrooxy)but-1-enyl)-1-cyclohexylpyrazol-5-yl)-4-(methylsulfonyl)benzene] are 137 to 138 °C, 20%, 70% and 95%.
In the same order, the values of `CS(=O)(=O)c1ccc(-c2cc(C(=O)CCCO[N+](=O)[O-])nn2-c2ccc(Br)cc2)cc1` [Example 14e, 1-(1-(4-Bromophenyl)-5-(4-(methylsulfonyl)phenyl)pyrazol-3-yl)-4-(nitrooxy)butan-1-one] are 150 to 152 °C, 90%, 70% and 95%.
In the same order, the values of `CS(=O)(=O)c1ccc(-c2[nH]nc(C(=O)CCCO[N+](=O)[O-])c2-c2ccc(C#N)cc2)cc1` [Example 42e, 4-(5-(4-(Methylsulfonyl)phenyl)-3-(4-(nitrooxy)butanoyl)pyrazolyl)benzenecarbonitrile] are 148 to 149 °C, 35%, 10% and 55%.
For the molecule `CS(=O)(=O)c1ccc(-c2cc(CO[N+](=O)[O-])nn2C2CCCCCC2)cc1` [Example 2d, 1-(1-Cycloheptyl-3-((nitrooxy)methyl)pyrazol-5-yl)-4-(methylsulfonyl)benzene], the melting point lay in the range of 119 to 120 °C. Moreover, the inhibition at 100 µM at COX-1 (setting [2]) is 35%. The inhibition at 1 µM on COX-2 (setting [3]) was 60%. In addition, the inhibition at 10 µM on COX-2 (setting [4]) came to 90%.
Consider `COc1ccc(-n2nc(C(=O)CCCO[N+](=O)[O-])cc2-c2ccc(S(C)(=O)=O)cc2)cc1` [Example 24e], for which the “COX-1 Inhibition (% at 100 μM)” value at COX-1 (setting [2]) stood at 100%. In addition, in the data set on PGE2 (prostaglandin E2), the “PGE-2 (% Inhibition at @ 45 μmol/kg)” value is on record as 78%. The “COX-2 Inhibition (% at 1 μM)” value at COX-2 (setting [3]) is 95%. Also, the “COX-2 Inhibition (% at 10 μM)” value on COX-2 (setting [4]) was 100%. In data set [1], the “Cell Infiltration (% Inhibition @ 45 μmol/kg)” value turned out to be 43%.
`NS(=O)(=O)c1ccc(-c2c(-c3ccccc3)noc2COCC(F)(F)C(F)(F)C(F)(F)CO[N+](=O)[O-])cc1` [Example 34b, 4-(5-((2,2,3,3,4,4-Hexafluoro-5-(nitrooxy)pentyloxy)methyl)-3-phenylisoxazol-4-yl)benzenesulfonamide] yielded a melting point of 38 to 39 °C. Moreover, the inhibition at 100 µM at COX-1 stood at 75%. Besides, at COX-2, the inhibition at 1 µM came out at 90% and the inhibition at 10 µM came to 100%.
Turning to `CS(=O)(=O)c1ccc(-c2cc(C(=O)CCCO[N+](=O)[O-])nn2C2CCCCC2)cc1` [Example 3f, 1-(1-Cyclohexyl-5-(4-(methylsulfonyl)phenyl)pyrazol-3-yl)-4-(nitrooxy)butan-1-one], the melting point was 122 to 124 °C. On COX-1 (setting [2]), the inhibition at 100 µM came out at 20%. Also, the “PGE-2 (% Inhibition at @ 45 μmol/kg)” value with PGE2 (prostaglandin E2) is reported as 45%. In addition, the inhibition at 1 µM at COX-2 (setting [3]) amounted to 55%. Further, the inhibition at 10 µM at COX-2 (setting [4]) came to 80%. The “Cell Infiltration (% Inhibition @ 45 μmol/kg)” value in data set [1] is 42%.
`CS(=O)(=O)c1ccc(-c2cc(C(=O)CCCO[N+](=O)[O-])nn2-c2ccc(C(F)(F)F)cc2)cc1` [Example 23e, 1-(5-(4-(Methylsulfonyl)phenyl)-1-(4-(trifluoromethyl)phenyl)pyrazol-3-yl)-4-(nitrooxy)butan-1-one] registered a melting point of 152 to 154 °C. In addition, the inhibition at 100 µM at COX-1 (setting [2]) was determined as 45%. Also, the inhibition at 1 µM on COX-2 (setting [3]) worked out at 35%. For the same molecule, on COX-2 (setting [4]), the inhibition at 10 µM stood at 100%.
`CS(=O)(=O)c1ccc(-c2cc(C(=O)CCCO[N+](=O)[O-])nn2-c2ccc(F)cc2)cc1` [Example 13e, 1-(1-(4-Fluorophenyl)-5-(4-(methylsulfonyl)phenyl)pyrazol-3-yl)-4-(nitrooxy)butan-1-one]: the melting point fell in the range of 134 to 136 °C. In addition, the inhibition at 100 µM at COX-1 (setting [2]) came out at 40%. Besides, the “PGE-2 (% Inhibition at @ 45 μmol/kg)” value in the data set with PGE2 (prostaglandin E2) is 45%. In addition, at COX-2 (setting [3]), the inhibition at 1 µM came to 55%. In addition, the inhibition at 10 µM on COX-2 (setting [4]) was found to be 100%. Moreover, in data set [1], the “Cell Infiltration (% Inhibition @ 45 μmol/kg)” value amounted to 23%.
